According to article PMC10952342 (2023):

How the values were obtained:
[1] = test system: HTelo (DNA, G4) AGGGTTAGGGTTAGGGTTAGGG; assay: emission titration (580 nm); details: lithium cacodylate pH 7.3
[2] = test system: c-Myc (DNA, G4) TGAGGGTGGGTAGGGTGGGTAA; assay: emission titration (580 nm); details: K+ 100 mM, lithium cacodylate pH 7.3
[3] = test system: HTG4 (DNA, G4) TTGGGTTAGGGTTAGGGTTAGGGA; assay: emission titration (580 nm); details: K+ 100 mM, lithium cacodylate pH 7.3
[4] = test system: c-Myc (DNA, G4) TGAGGGTGGGTAGGGTGGGTAA; assay: CD melting (265 nm); details: K+ 1 mM; 10 mM lithium cacodylate; 5 μM DNA, 10 μM compound
[5] = test system: HTelo (DNA, G4) AGGGTTAGGGTTAGGGTTAGGG; assay: CD melting (295 nm); details: Na+ 100 mM; 10 mM lithium cacodylate; 5 μM DNA, 10 μM compound

Row | Ka ([1]; K+ 100 mM) | Ka ([1]; Na+ 100 mM) | Ka [2] | Ka [3] | ΔTm [4] | ΔTm [5] | Ka ([1]; K+ 100 mM, 1 μM complex) | Ka ([1]; Na+ 100 mM, 1 μM complex) | Ka ([2]; 1 μM complex) | Ka ([3]; 1 μM complex) | SMILES
1 | 12.5 ± 0.30 x 10^5 M^-1 | 3.5 ± 1.01 x 10^5 M^-1 | 14.43 ± 7.18 x 10^5 M^-1 | 22.04 ± 9.23 x 10^5 M^-1 |  |  |  |  |  |  | CN(C)CCOc1c[c-]c(-c2cccc(-c3ccccn3)n2)cc1.OCC[S-].[Pt+2]
2 | 10.45 ± 1.13 x 10^5 M^-1 | 6.22 ± 0.34 x 10^5 M^-1 | 17.61 ± 2.87 x 10^5 M^-1 | 14.89 ± 4.37 x 10^5 M^-1 | 30 °C | 3.6 °C |  |  |  |  | CN(C)CCOc1c[c-]c(-c2cccc(-c3ccccn3)n2)cc1.[Cl-].[Pt+2]
3 | 4.85 ± 0.66 x 10^5 M^-1 | 4.5 ± 1.54 x 10^5 M^-1 | 15.04 ± 1.18 x 10^5 M^-1 | 16.35 ± 2.30 x 10^5 M^-1 |  |  |  |  |  |  | OCC[S-].[Pt+2].[c-]1cc(OCCN2CCCCC2)ccc1-c1cccc(-c2ccccn2)n1
4 | 3.92 ± 0.13 x 10^5 M^-1 | 1.46 ± 0.05 x 10^5 M^-1 | 6.09 ± 0.91 x 10^5 M^-1 | 4.45 ± 0.58 x 10^5 M^-1 |  |  |  |  |  |  | OCC[S-].[Pt+2].[c-]1cc(OCCN2CCOCC2)ccc1-c1cccc(-c2ccccn2)n1
5 |  |  |  |  | 28.3 °C | 2.8 °C | 11.77 ± 1.69 x 10^5 M^-1 | 5.06 ± 0.59 x 10^5 M^-1 | 21.65 ± 0.64 x 10^5 M^-1 | 19.18 ± 3.60 x 10^5 M^-1 | [Cl-].[Pt+2].[c-]1cc(OCCN2CCCCC2)ccc1-c1cccc(-c2ccccn2)n1
6 | 2.95 ± 0.34 x 10^5 M^-1 | 1.47 ± 0.08 x 10^5 M^-1 | 13.68 ± 1.56 x 10^5 M^-1 | 3.55 ± 0.92 x 10^5 M^-1 |  |  |  |  |  |  | [Cl-].[Pt+2].[c-]1cc(OCCN2CCOCC2)ccc1-c1cccc(-c2ccccn2)n1
